Literature values in patent publication US20250057824A1, “NOSE-TO-BRAIN DELIVERY FORMULATION OF NIMODIPINE, PREPARATION AND USE” (Nasal-Phyto (Shanghai) Pharmaceutical Technology Co., Ltd., priority 2023, published 2025).
Converted amounts (≈) assume the structure as drawn.

Q: Which solubility in water does the source give for `COCCOC(=O)C1=C(C)NC(C)=C(C(=O)OC(C)C)C1c1cccc([N+](=O)[O-])c1` (stereo not shown) [Nimodipine] here?
A: 2 µg/mL (≈ 4.78 µM)
